Assay results reported in ChEMBL document CHEMBL1201862, “PubChem BioAssay data set” (2004).
Activity calls are given as the source filed them. Rule as the data show it, for most assays here: actives have a measured IC50 and inactives only a lower limit.

How the values were obtained:
Format in all cases: functional
[1] = target: T1, Tyrosine-protein phosphatase non-receptor type 22 (Homo sapiens, UniProt Q9Y2R2); test: SAR LYP1 Fluorescent Assay using pCAP substrate for In Vitro dose response studies - Set 2. [Related pubchem assays (depositor defined):AID1779, AID1784, AID2135, AID449727]
T1 sequence (Q9Y2R2 whole entry): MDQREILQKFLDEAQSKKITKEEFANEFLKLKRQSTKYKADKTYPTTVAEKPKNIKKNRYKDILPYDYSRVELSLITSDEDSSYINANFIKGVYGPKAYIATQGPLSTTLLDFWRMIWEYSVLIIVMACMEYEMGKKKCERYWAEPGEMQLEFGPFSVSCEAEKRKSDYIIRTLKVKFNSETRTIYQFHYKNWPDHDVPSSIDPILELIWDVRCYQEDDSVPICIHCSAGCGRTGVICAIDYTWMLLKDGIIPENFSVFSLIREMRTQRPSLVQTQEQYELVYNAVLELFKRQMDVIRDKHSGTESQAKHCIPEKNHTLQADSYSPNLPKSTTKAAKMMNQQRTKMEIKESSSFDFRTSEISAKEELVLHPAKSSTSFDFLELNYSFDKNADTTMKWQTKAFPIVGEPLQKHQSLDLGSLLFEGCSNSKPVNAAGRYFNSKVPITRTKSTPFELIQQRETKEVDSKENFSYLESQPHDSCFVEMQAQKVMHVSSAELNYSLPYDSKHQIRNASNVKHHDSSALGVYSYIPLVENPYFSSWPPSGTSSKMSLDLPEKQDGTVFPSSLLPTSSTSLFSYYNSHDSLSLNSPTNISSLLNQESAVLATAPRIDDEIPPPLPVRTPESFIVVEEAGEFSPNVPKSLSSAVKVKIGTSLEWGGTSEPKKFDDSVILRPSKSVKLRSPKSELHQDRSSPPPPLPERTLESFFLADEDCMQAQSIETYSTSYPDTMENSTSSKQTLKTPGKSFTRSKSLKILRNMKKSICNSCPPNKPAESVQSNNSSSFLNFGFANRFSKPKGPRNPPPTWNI

[2] = target: T1, Tyrosine-protein phosphatase non-receptor type 22; test: LYP (PTPN22) phosphatase inhibitor potency, SAR follow-up, biochemical, pCAP fluorogenic substrate, fluorescence, set 3 (AID 449727)
[3] = target: T1, Tyrosine-protein phosphatase non-receptor type 22; test: SAR LYP1 Fluorescent Assay using OMFP substrate for In Vitro dose response studies - Set 3. [Related pubchem assays (depositor defined):AID1779, AID1784, AID2140, AID2686]
[4] = target: T2, Tyrosine-protein phosphatase non-receptor type 7 (Homo sapiens, UniProt P35236); test: HePTP (PTPN7) phosphatase inhibitor potency, SAR follow-up, biochemical, set 2 (AID 449736)
T2 sequence (P35236 whole entry): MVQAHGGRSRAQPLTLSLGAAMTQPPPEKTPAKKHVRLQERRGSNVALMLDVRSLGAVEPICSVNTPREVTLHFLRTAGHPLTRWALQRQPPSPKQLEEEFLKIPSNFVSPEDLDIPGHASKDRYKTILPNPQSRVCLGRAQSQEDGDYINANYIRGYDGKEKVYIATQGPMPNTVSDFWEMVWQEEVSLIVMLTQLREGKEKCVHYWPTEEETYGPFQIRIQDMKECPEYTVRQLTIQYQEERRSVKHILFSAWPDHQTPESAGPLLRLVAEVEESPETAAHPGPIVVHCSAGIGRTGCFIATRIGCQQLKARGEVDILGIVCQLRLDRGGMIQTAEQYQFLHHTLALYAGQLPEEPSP

[5] = target: T1, Tyrosine-protein phosphatase non-receptor type 22; test: SAR LYP1 Fluorescent Assay using OMFP substrate for In Vitro dose response studies - Set 2. [Related pubchem assays (depositor defined):AID1779, AID1784, AID2140, AID449726, AID488869]
[6] = target: T3, Kappa-type opioid receptor (Homo sapiens, UniProt P41145); test: SAR analysis of small molecule agonists of the kappa opioid receptor via a luminescent beta-arrestin assay - Set 3. [Related pubchem assays (depositor defined):AID1777, AID1785, AID1786, AID1966, AID2133, AID2136, AID2284, AID2500]
[7] = target: Mu-type opioid receptor (Homo sapiens, UniProt P35372); test: SAR Analysis of Agonists of the MOR Receptor using an Image-Based Assay - Set 3. [Related pubchem assays (depositor defined):AID1777, AID1785, AID1786, AID1966, AID2133, AID2136, AID2284, AID2285, AID2352]
[8] = target: T3, Kappa-type opioid receptor; test: KOR agonist analogs, arrestin-GFP redistribution, SAR follow-up, imaging, image-based, set 3 (AID 488833)
[9] = target: Delta-type opioid receptor (Homo sapiens, UniProt P41143); test: SAR Analysis of Agonists of the DOR Receptor using an Image-Based Assay - Set 3. [Related pubchem assays (depositor defined):AID1777, AID1786]
Chain of Delta-type opioid receptor (P41143 whole entry): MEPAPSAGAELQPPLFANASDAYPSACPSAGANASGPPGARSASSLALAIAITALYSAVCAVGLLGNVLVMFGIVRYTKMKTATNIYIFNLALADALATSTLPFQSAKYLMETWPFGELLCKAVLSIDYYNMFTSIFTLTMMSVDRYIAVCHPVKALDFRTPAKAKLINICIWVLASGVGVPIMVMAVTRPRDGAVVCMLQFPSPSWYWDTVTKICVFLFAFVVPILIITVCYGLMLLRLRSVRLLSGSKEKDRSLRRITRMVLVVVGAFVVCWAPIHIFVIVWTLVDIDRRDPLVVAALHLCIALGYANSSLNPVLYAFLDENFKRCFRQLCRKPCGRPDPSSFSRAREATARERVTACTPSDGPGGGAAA

T3 sequence (P41145 whole entry): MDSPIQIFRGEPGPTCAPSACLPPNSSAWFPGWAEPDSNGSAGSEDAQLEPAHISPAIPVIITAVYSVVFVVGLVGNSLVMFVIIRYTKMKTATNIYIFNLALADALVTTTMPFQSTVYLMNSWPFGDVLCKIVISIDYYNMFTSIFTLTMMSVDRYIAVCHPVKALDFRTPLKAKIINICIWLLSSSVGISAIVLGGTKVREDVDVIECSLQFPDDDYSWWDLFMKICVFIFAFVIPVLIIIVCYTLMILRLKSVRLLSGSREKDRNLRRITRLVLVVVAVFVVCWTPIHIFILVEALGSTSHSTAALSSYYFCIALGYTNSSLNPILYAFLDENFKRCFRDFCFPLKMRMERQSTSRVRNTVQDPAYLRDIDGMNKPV
Chain of Mu-type opioid receptor (P35372 whole entry): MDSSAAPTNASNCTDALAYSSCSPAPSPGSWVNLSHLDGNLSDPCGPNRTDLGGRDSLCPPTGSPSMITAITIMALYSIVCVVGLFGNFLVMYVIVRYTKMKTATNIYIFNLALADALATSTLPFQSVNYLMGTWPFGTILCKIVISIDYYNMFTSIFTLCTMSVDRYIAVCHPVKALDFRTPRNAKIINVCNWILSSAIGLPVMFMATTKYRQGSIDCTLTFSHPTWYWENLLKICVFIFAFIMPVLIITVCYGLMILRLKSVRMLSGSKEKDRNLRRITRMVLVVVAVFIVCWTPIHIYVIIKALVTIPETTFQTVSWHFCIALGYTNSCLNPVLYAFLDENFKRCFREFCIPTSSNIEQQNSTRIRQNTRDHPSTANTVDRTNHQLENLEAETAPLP

| IC50 [1] | IC50 [2] | IC50 [3] | IC50 [4] | IC50 [5] | EC50 [6] | EC50 [7] | EC50 [8] | EC50 [9] | SMILES |
| --- | --- | --- | --- | --- | --- | --- | --- | --- | --- |
| 55 µM (active) | 44.8 µM (active) | > 100 µM (inactive) | > 100 µM (inactive) | > 100 µM (inactive) | – | – | – | – | NC1=NC(=O)/C(=C/c2ccc(OCC(=O)O)cc2)S1 |
| – | – | – | – | – | 8.21 µM (active) | > 32 µM (inactive) | 12.2 µM (inactive) | > 64 µM (inactive) | Cc1c(CSc2nnc(-c3ccccn3)n2Cc2ccco2)cccc1[N+](=O)[O-] |
